Assay results taken from US8088930B2, “Benzimidazole derivatives” (Hoffmann-La Roche Inc., priority 2008, dated 2012).

The molecules below were run against T1, FXR ligand binding domain (GST-FXR LBD fusion protein, human FXR aa 193-473) (Homo sapiens, UniProt Q96RI1) (assay: Radioligand binding assay (scintillation proximity, radioligand displacement)). Settings: 40 nM GST-FXR LBD on SPA beads, test compound 6×10^−9 M to 2.5×10^−5 M, read-out: h-IC50 Binding.
T1 construct: fused on or other part: Glutathione-S-transferase (GST) fused N-terminally to the FXR LBD, used to capture the protein on glutathione SPA beads
T1 sequence (Q96RI1 211-486 limits assumed): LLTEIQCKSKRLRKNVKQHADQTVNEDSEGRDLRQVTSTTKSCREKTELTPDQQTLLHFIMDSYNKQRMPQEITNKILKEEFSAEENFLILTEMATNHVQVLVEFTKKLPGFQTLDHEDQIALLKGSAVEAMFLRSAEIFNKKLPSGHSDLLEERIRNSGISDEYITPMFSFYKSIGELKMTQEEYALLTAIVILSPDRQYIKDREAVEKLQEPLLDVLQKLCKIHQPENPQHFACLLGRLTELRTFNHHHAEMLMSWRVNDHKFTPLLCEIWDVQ
Procedure: The following tests were carried out in order to determine the activity of the compounds of formula (I).
To accomplish this, the portions of the sequences encoding the FXR LBD were amplified by polymerase chain reaction (PCR) from a full-length clone by PCR and then subcloned into the plasmid vectors. The final clone was verified by DNA sequence analysis.
The induction, expression, and subsequent purification of GST-LBD fusion protein was performed in E. coli strain BL21(pLysS) cells by standard methods (Current Protocols in Molecular Biology, Wiley Press, ed. Ausubel et al.).
Radioligand Binding Assay
Binding of test substances to the FXR ligand binding domain was assessed in a radioligand displacement assay. The assay was performed in a buffer consisting of 50 mM Hepes, pH 7.4, 10 mM NaCl, 5 mM MgCl2, 0.01% CHAPS. For each reaction well in a 96-well plate, 40 nM of GST-FXR LBD fusion protein was bound to 10 μg glutathione yttrium silicate SPA beads (Pharmacia Amersham) in a final volume of 50 μl by shaking. A radioligand (e.g., 20 nM of 2,N-dicyclohexyl-2-[2-(2,4 dimethoxy-phenyl)-benzoimidazol-1-yl]-acetamide) and test compounds were added, and scintillation proximity counting was performed. All binding assays were performed in 96-well plates and the amount of bound ligand was measured on a Packard TopCount using OptiPlates (Packard).

Compound	IC50 [nM]
Fc1cc2nc(-c3ccc(Cl)cc3)n(C(COc3cccnc3)C3CCCCC3)c2cc1F (stereo not shown) [Example 35, 2-(4-Chloro-phenyl)-1-[1-cyclohexyl-2-(pyridin-3-yloxy)-ethyl]-5,6-difluoro-1H-benzoimidazole]	200
COc1ccc(-c2nc3cc(F)c(F)cc3n2C(COc2ccc(C(=O)O)cn2)C2CCCCC2)c(OC)n1 (single isomer, unassigned; (+)) [Example 74, (+)-6-{2-Cyclohexyl-2-[2-(2,6-dimethoxy-pyridin-3-yl)-5,6-difluoro-benzoimidazol-1-yl]-ethoxy}-nicotinic acid]	500
O=C(O)C1(Oc2ccc(OCC(C3CCCCC3)n3c(-c4ccc(Cl)cc4)nc4cc(F)c(F)cc43)cc2)CC1 (single isomer, unassigned; (+)) [Example 122, (+)-1-(4-{2-[2-(4-Chloro-phenyl)-5,6-difluoro-benzoimidazol-1-yl]-2-cyclohexyl-ethoxy}-phenoxy)-cyclopropanecarboxylic acid]	180
O=C(O)c1ccc(CCC(C2CCCCC2)n2c(-c3ccccc3)nc3cc(F)c(F)cc32)cc1 (single isomer, unassigned; (+)) [Example 144, (+)-4-[3-Cyclohexyl-3-(5,6-difluoro-2-phenyl-benzoimidazol-1-yl)-propyl]-benzoic acid]	200
O=C(O)C1CCC(NCC(C2CCCCC2)n2c(-c3ccc(Cl)cc3)nc3cc(F)c(F)cc32)CC1 (single isomer, unassigned) [Example 137, (+) or (−)-4-{2-[2-(4-Chloro-phenyl)-5,6-difluoro-benzoimidazol-1-yl]-(2-cis-cyclohexyl-ethylamino}-cyclohexanecarboxylic acid]	6100
CC(C)(Oc1ccc(OCC(C2CCCCC2)n2c(-c3ccc(Cl)cc3)nc3cc(F)c(F)cc32)nc1)C(=O)O (single isomer, unassigned; (+)) [Example 48, (+)-2-(6-{2-[2-(4-Chloro-phenyl)-5,6-difluoro-benzoimidazol-1-yl]-2-cyclohexyl-ethoxy}-pyridin-3-yloxy)-2-methyl-propionic acid]	500
Cc1cc(-c2nnn[nH]2)cc(C)c1OCC(C1CCCCC1)n1c(-c2ccc(Cl)cc2)nc2ccccc21 (single isomer, unassigned; (-)) [Example 112, (−)-2-(4-Chloro-phenyl)-1-{1-cyclohexyl-2-[2,6-dimethyl-4-(1H-tetrazol-5-yl)-phenoxy]-ethyl}-1H-benzoimidazole]	110
Cc1cc(OCC(C2CCCCC2)n2c(-c3ccc(Cl)cc3)nc3cc(F)c(F)cc32)ccc1OCC(=O)O (stereo not shown) [Example 92, (4-{2-[2-(4-Chloro-phenyl)-5,6-difluoro-benzoimidazol-1-yl]-2-cyclohexyl-ethoxy}-2-methyl-phenoxy)-acetic acid]	90
O=C(O)C1(Oc2ccc(OCC(C3CCCCC3)n3c(-c4ccc(Cl)cc4)nc4cc(F)c(F)cc43)nc2)CC1 (stereo not shown) [Example 50, 1-(6-{2-[2-(4-Chloro-phenyl)-5,6-difluoro-benzoimidazol-1-yl]-2-cyclohexyl-ethoxy}-pyridin-3-yloxy)-cyclopropanecarboxylic acid]	100
Cc1cc(OCC(C2CCCCC2)n2c(-c3ccc(Cl)cc3)nc3cc(F)c(F)cc32)cc(C)c1C(=O)O (stereo not shown) [Example 61, 4-{2-[2-(4-Chloro-phenyl)-5,6-difluoro-benzoimidazol-1-yl]-2-cyclohexyl-ethoxy}-2,6-dimethyl-benzoic acid]	1400
CC(C)(OCc1ccc(C(=O)O)cc1)C(C1CCCCC1)n1c(-c2ccc(Cl)cc2)nc2cc(F)c(F)cc21 (stereo not shown) [Example 57, 4-{2-[2-(4-Chloro-phenyl)-5,6-difluoro-benzoimidazol-1-yl]-2-cyclohexyl-1,1-dimethyl-ethoxymethyl}-benzoic acid]	100
O=C(O)c1ccc(COCC(C2CCCCC2)n2c(-c3ccc(Cl)cc3)nc3cc(F)c(F)cc32)cc1 (single isomer, unassigned; (+)) [Example 69, (+)-4-{2-[2-(4-Chloro-phenyl)-5,6-difluoro-benzoimidazol-1-yl]-2-cyclohexyl-ethoxymethyl}-benzoic acid]	700
COc1ccc(-c2nc3cc(F)c(F)cc3n2C(COc2c(F)cc(C(=O)O)cc2F)C2CCCCC2)c(OC)n1 (single isomer, unassigned; (+)) [Example 97, (+)-4-{2-Cyclohexyl-2-[2-(2,6-dimethoxy-pyridin-3-yl)-5,6-difluoro-benzoimidazol-1-yl]-ethoxy}-3,5-difluoro-benzoic acid]	50
O=C(O)C1(Oc2ccc(OCC(C3CCCCC3)n3c(-c4ccc(Cl)cc4)nc4cc(F)c(F)cc43)nc2)CC1 (single isomer, unassigned; (-)) [Example 51, (−)-1-(6-{2-[2-(4-Chloro-phenyl)-5,6-difluoro-benzoimidazol-1-yl]-2-cyclohexyl-ethoxy}-pyridin-3-yloxy)-cyclopropanecarboxylic acid]	300

Molecules with a lower IC50, results first:

IC50 [nM]	Compound
30	O=C(O)c1cc(F)c(OCC(C2CCCCC2)n2c(-c3ccc(Cl)cc3)nc3ccccc32)c(Cl)c1 (single isomer, unassigned; (-)) [Example 109, (−)-3-Chloro-4-{2-[2-(4-chloro-phenyl)-benzoimidazol-1-yl]-2-cyclohexyl-ethoxy}-5-fluoro-benzoic acid]
30	O=C(O)c1cc(F)c(OCC(C2CCCCC2)n2c(-c3ccc(Cl)cc3)nc3ccccc32)c(F)c1 (stereo not shown) [Example 102, 4-{2-[2-(4-Chloro-phenyl)-benzoimidazol-1-yl]-2-cyclohexyl-ethoxy}-3,5-difluoro-benzoic acid]
30	O=C(O)C1(Oc2ccc(OCC(C3CCCCC3)n3c(-c4ccc(Cl)cc4)nc4cc(F)c(F)cc43)cc2)CC1 (stereo not shown) [Example 120, 1-(4-{2-[2-(4-Chloro-phenyl)-5,6-difluoro-benzoimidazol-1-yl]-2-cyclohexyl-ethoxy}-phenoxy)-cyclopropanecarboxylic acid]
20	O=C(O)c1cnc(OCC(C2CCCCC2)n2c(-c3ccc(Cl)cc3)nc3cc(F)c(F)cc32)c2ccsc12 (stereo not shown) [Example 26, 4-{2-[2-(4-Chloro-phenyl)-5,6-difluoro-benzoimidazol-1-yl]-2-cyclohexyl-ethoxy}-thieno[3,2-c]pyridine-7-carboxylic acid]
20	O=C(O)c1cnc(OCC(C2CCCCC2)n2c(-c3ccc(Cl)cc3)nc3cc(F)c(F)cc32)c(Cl)c1 (single isomer, unassigned; (-)) [Example 24, (−)-5-Chloro-6-{2-[2-(4-chloro-phenyl)-5,6-difluoro-benzoimidazol-1-yl]-2-cyclohexyl-ethoxy}-nicotinic acid]
10	Cc1cc(-c2nnn[nH]2)cc(C)c1OCC(C1CCC(F)(F)CC1)n1c(-c2ccc(Cl)cc2)nc2cc(F)c(F)cc21 (stereo not shown) [Example 134, 2-(4-Chloro-phenyl)-1-{1-(4,4-difluoro-cyclohexyl)-2-[2,6-dimethyl-4-(1H-tetrazol-5-yl)-phenoxy]-ethyl}-5,6-difluoro-1H-benzoimidazole]
10	Cc1cc(Cl)ccc1-c1nc2cc(F)c(F)cc2n1C(COc1c(F)cc(C(=O)O)cc1F)C1CCCCC1 (single isomer, unassigned; (-)) [Example 125, (−)-4-{2-[2-(4-Chloro-2-methyl-phenyl)-5,6-difluoro-benzoimidazol-1-yl]-2-cyclohexyl-ethoxy}-3,5-difluoro-benzoic acid]
10	O=C(O)c1cc(F)c(OCC(C2CCCCC2)n2c(-c3ccc(Cl)cc3)nc3ccccc32)c(Cl)c1 (stereo not shown) [Example 108, 3-Chloro-4-{2-[2-(4-chloro-phenyl)-benzoimidazol-1-yl]-2-cyclohexyl-ethoxy}-5-fluoro-benzoic acid]
2	CC(C)(Oc1c(F)cc(-c2nnn[nH]2)cc1F)C(C1CCCCC1)n1c(-c2ccc(Cl)cc2)nc2cc(F)c(F)cc21 (single isomer, unassigned) [Example 115, (+) or (−)-2-(4-Chloro-phenyl)-1-[1-cyclohexyl-2-[2,6-difluoro-4-(1H-tetrazol-5-yl)-phenoxy]-2-methyl-propyl]-5,6-difluoro-1H-benzoimidazole]
1	COc1ccc(-c2nc3cc(F)c(F)cc3n2C(COc2c(C)cc(C(=O)O)cc2C)C2CCCCC2)c(OC)n1 (stereo not shown) [Example 82, 4-{2-Cyclohexyl-2-[2-(2,6-dimethoxy-pyridin-3-yl)-5,6-difluoro-benzoimidazol-1-yl]-ethoxy}-3,5-dimethyl-benzoic acid]
0.4	COc1ccc(-c2nc3cc(F)c(F)cc3n2C(CCc2ccc(C(=O)O)cc2)C2CCCCC2)c(OC)n1 (single isomer, unassigned; (+)) [Example 147, (+)-4-{3-Cyclohexyl-3-[2-(2,6-dimethoxy-pyridin-3-yl)-5,6-difluoro-benzoimidazol-1-yl]-propyl}-benzoic acid]
